Biological target: S1P1 receptors (Homo sapiens, UniProt P21453)
Test: 35S-GTPyS binding assay
Format: biochemical
Conditions: membranes; compound 0.1 nM-10 μM; 0.1 nM 35S-GTPyS; 10 μM S1P as 100% maximum efficacy; 90 min at room temperature
Description: The effect of the compounds was measured using a 35S-GTPyS binding assay. Briefly, membranes were incubated in a buffer containing 20 mM HEPES pH 7.4, 100 mM NaCl, 10 mM MgCl2, 10 μM GDP, 50 μg/ml saponin and 0.2% fatty acid-free BSA at various concentrations (0.1 nM-10 μM) and 0.1 nM 35S-GTPyS. 10 μM S1P was used as 100% maximum efficacy. The assay was incubated for 90 min at room temperature with gentle mixing, and terminated by filtrating the reaction mixture through GF/C filter plates using the Manifold Filtration System. The filters were immediately washed with sodium phosphate pH 7.4 buffers. After drying the filter plate's scintillant liquid were added to each well and 35S-GTPyS binding was measured on a Trilux Scintillation Counter.

Chain of S1P1 receptors (P21453 whole entry): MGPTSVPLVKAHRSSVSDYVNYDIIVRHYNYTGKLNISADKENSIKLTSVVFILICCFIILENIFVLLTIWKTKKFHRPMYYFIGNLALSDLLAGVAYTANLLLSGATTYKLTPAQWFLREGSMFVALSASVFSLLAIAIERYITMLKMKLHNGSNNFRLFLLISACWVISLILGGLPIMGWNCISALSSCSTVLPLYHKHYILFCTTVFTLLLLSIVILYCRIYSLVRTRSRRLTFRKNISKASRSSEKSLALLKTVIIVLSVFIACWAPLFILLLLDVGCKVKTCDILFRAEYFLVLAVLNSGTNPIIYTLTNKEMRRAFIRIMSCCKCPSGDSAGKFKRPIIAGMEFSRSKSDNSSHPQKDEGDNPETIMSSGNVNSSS

EC50 | Structure (SMILES)
6.2 nM | CCCCN(C(=O)c1ccccc1Cl)c1nnc(-c2cc(C)c(O)c(C)c2)s1 [Example 8, N-butyl-2-chloro-N-[5-(4-hydroxy-3,5-dimethylphenyl)-1,3,4-thiadiazol-2-yl]benzamide]
4.4 nM | CCCCN(C(=O)c1ccccc1F)c1nnc(-c2cc(C)c(OC)c(C)c2)s1 [Example 9, N-butyl-2-fluoro-N-[5-(4-methoxy-3,5-dimethylphenyl)-1,3,4-thiadiazol-2-yl]benzamide]
8.3 nM | CCCCN(C(=O)c1ccccc1OC)c1nnc(-c2cc(C)c(OC)c(C)c2)s1 [Example 19, N-butyl-2-methoxy-N-[5-(4-methoxy-3,5-dimethylphenyl)-1,3,4-thiadiazol-2-yl]benzamide]
3.4 nM | CCCCN(C(=O)c1ccccc1Cl)c1nnc(-c2cc(Cl)nc(OC)c2)s1 [Example 31, N-Butyl-2-chloro-N-[5-(2-chloro-6-methoxypyridin-4-yl)-1,3,4-thiadiazol-2-yl]benzamide]
64.2 nM | CCCCN(C(=O)c1ccccc1Cl)c1nnc(-c2cc(C)c(OCCOC)c(C)c2)s1 [Example 32, N-butyl-2-chloro-N-{5-[4-(2-methoxyethoxy)-3,5-dimethylphenyl]-1,3,4-thiadiazol-2-yl}benzamide]
3.8 nM | CCCCN(C(=O)c1ccccc1Cl)c1nnc(-c2cc(C)nc(Cl)c2)s1 [Example 39, N-Butyl-2-chloro-N-[5-(2-chloro-6-methylpyridin-4-yl)-1,3,4-thiadiazol-2-yl]benzamide]
36 nM | COc1c(C)cc(-c2nnc(N(CC3CC3)C(=O)c3ccccc3F)s2)cc1C [Example 46, N-(cyclopropylmethyl)-2-fluoro-N-[5-(4-methoxy-3,5-dimethylphenyl)-1,3,4-thiadiazol-2-yl]benzamide]
116 nM | CCCCN(C(=O)c1ccccc1F)c1nnc(-c2ccc(OC)nc2)s1 [Example 48, N-butyl-2-fluoro-N-(5-(6-methoxypyridin-3-yl)-1,3,4-thiadiazol-2-yl)benzamide]
88.7 nM | CCCCN(C(=O)c1ccccc1F)c1nnc(-c2ccc3nccn3c2)s1 [Example 49, N-butyl-2-fluoro-N-(5-(imidazo[1,2-a]pyridin-6-yl)-1,3,4-thiadiazol-2-yl)benzamide]
46.3 nM | CCCCN(C(=O)c1ccccc1Cl)c1nnc(-c2ccc(C(N)=O)cc2)s1 [Example 53, N-butyl-N-(5-(4-carbamoylphenyl)-1,3,4-thiadiazol-2-yl)-2-chlorobenzamide]
55 nM | CCCCN(C(=O)c1ccccc1F)c1nnc(-c2ccc(C(=O)NCCC(=O)O)cc2)s1 [Example 69, N-(4-{5-[Butyl(2-fluorobenzoyl)amino]-1,3,4-thiadiazol-2-yl}benzoyl)-beta-alanine]
1.4 nM | CCCCN(C(=O)Cc1ccccc1F)c1nnc(-c2ccc(CN3CC(C(=O)O)C3)cc2)s1 [Example 87, 1-[4-(5-{Butyl[(2-fluorophenyl)acetyl]amino}-1,3,4-thiadiazol-2-yl)benzyl]azetidine-3-carboxylic acid]
2 nM | CCCCN(C(=O)c1ccccc1F)c1nnc(-c2ccc(CN3CCC(C(=O)O)C3)cc2C)s1 (stereo not drawn) [Example 97, 1-(4-{5-[Butyl(2-fluorobenzoyl)amino]-1,3,4-thiadiazol-2-yl}-3-methylbenzyl)-pyrrolidine-3-carboxylic acid]
0.45 nM | CCCCN(C(=O)c1ccccc1F)c1nnc(-c2cc(C)c(OCCN)c(C)c2)s1 [Example 105, N-{5-[4-(2-Aminoethoxy)-3,5-dimethylphenyl]-1,3,4-thiadiazol-2-yl}-N-butyl-2-fluorobenzamide]
7 nM | CCN(C(=O)c1cccc(Cl)c1F)c1nnc(-c2ccc(CN3CC(C(=O)O)C3)cc2)s1 [Example 108, 1-(4-{5-[(3-Chloro-2-fluorobenzoyl)(ethyl)amino]-1,3,4-thiadiazol-2-yl}benzyl)-azetidine-3-carboxylic acid]
0.15 nM | CCCCN(C(=O)c1cccc(Cl)c1F)c1nnc(-c2cc(C)c(OCC(O)CO)c(C)c2)s1 (stereo not drawn) [Example 111, N-Butyl-3-chloro-N-{5-[4-(2,3-dihydroxypropoxy)-3,5-dimethylphenyl]-1,3,4-thiadiazol-2-yl}-2-fluorobenzamide]
1.52 nM | CCCCN(C(=O)c1ccccc1F)c1nnc(-c2cc(C)c(OCC(O)CN)c(C)c2)s1 (stereo not drawn) [Example 113, N-{5-[4-(3-Amino-2-hydroxypropoxy)-3,5-dimethylphenyl]-1,3,4-thiadiazol-2-yl}-N-butyl-2-fluorobenzamide]
4.42 nM | CCCCN(C(=O)c1ccccc1Cl)c1nnc(-c2ccc(CN3CCC(C(=O)O)CC3)cc2C)s1 [Example 118, 1-(4-{5-[Butyl(2-chlorobenzoyl)amino]-1,3,4-thiadiazol-2-yl}-3-methylbenzyl)-piperidine-4-carboxylic acid]
